Biological target: T1, recombinant human sphingosine kinase 1 (rhSphK1) (Homo sapiens, UniProt Q9NYA1)
T1 construct: gene SPHK1; full-length (1155 bp CDS), 6×His tag, ~50 kDa, E. coli
Assay: Microscale thermophoresis (SphK2 inhibitor used as control)
Type: binding

T1 sequence (Q9NYA1 whole entry): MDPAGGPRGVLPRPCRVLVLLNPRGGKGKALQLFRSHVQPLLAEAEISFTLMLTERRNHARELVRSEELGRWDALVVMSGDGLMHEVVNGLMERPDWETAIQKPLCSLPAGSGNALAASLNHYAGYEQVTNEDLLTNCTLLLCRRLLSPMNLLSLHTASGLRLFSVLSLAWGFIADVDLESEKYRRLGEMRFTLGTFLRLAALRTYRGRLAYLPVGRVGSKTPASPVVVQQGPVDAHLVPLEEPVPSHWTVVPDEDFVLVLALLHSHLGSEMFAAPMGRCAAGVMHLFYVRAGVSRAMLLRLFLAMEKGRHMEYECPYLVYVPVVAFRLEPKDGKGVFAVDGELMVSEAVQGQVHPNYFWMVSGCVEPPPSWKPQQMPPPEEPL

Work on O=C(NCc1ccncc1)C12CC3CC(C1)CC(c1ccc(Cl)cc1)(C3)C2 [ABC294640] yielded a Kd of 70.6 µM.

From PMC13086438 (PLOS Neglected Tropical Diseases, 2026)
